Assays:
[1] = xn = mol fraction of the nth substance listed; conditions: 101 kPa, Liquid, Vibrating tube method
[2] = 101.33 kPa, Liquid, Vibrating tube method

CCCCN(CCCC)CCCC [tributylamine] + c1ccccc1
mass density [kg/m3], [1]
Conditions | x1 = 0.0102 | x1 = 0.0206 | x1 = 0.0302 | x1 = 0.0404 | x1 = 0.0499 | x1 = 0.0596 | x1 = 0.0698 | x1 = 0.0796 | x1 = 0.0874
303.15 K | 865.38 | 862.54 | 860.05 | 857.48 | 855.12 | 852.77 | 850.4 | 848.22 | 846.53
313.15 K | 854.76 | 852.03 | 849.61 | 847.12 | 844.87 | 842.65 | 840.38 | 838.28 | 836.65

CCCN [propan-1-amine]
[2]
Conditions | mass density [kg/m3]
303.15 K | 706.1
313.15 K | 696.04

CCN(CC)CC [triethylamine] + c1ccccc1
mass density [kg/m3], [1]
Conditions | x1 = 0.0102 | x1 = 0.0209 | x1 = 0.0311 | x1 = 0.0395 | x1 = 0.0501 | x1 = 0.0618 | x1 = 0.0712 | x1 = 0.0804 | x1 = 0.0919 | x1 = 0.1
303.15 K | 865.85 | 863.38 | 861.03 | 859.07 | 856.75 | 854.1 | 851.95 | 850 | 847.45 | 845.76
313.15 K | 855.14 | 852.62 | 850.24 | 848.31 | 845.93 | 843.31 | 841.23 | 839.27 | 836.79 | 835.08

CCCNCCC [dipropylamine] + c1ccccc1
mass density [kg/m3], [1]
Conditions | x1 = 0.0105 | x1 = 0.0207 | x1 = 0.0306 | x1 = 0.039 | x1 = 0.0508 | x1 = 0.0614 | x1 = 0.0723 | x1 = 0.0812 | x1 = 0.0917
303.15 K | 865.97 | 863.74 | 861.67 | 859.91 | 857.5 | 855.36 | 853.17 | 851.42 | 849.36
313.15 K | 855.38 | 853.26 | 851.24 | 849.55 | 847.19 | 845.11 | 843 | 841.29 | 839.28

CCCN [propan-1-amine] + C1CCCCC1
mass density [kg/m3], [1]
Conditions | x1 = 0.0076 | x1 = 0.0169 | x1 = 0.0282 | x1 = 0.0365 | x1 = 0.0483 | x1 = 0.057 | x1 = 0.0652 | x1 = 0.0747 | x1 = 0.0859
303.15 K | 768.47 | 767.75 | 766.86 | 766.22 | 765.3 | 764.61 | 763.97 | 763.25 | 762.47
313.15 K | 758.92 | 758.21 | 757.38 | 756.8 | 755.92 | 755.27 | 754.68 | 753.96 | 753.15

CCN(CC)CC [triethylamine] + C1CCCCC1
mass density [kg/m3], [1]
Conditions | x1 = 0.0102 | x1 = 0.0192 | x1 = 0.0299 | x1 = 0.0422 | x1 = 0.0498 | x1 = 0.0618 | x1 = 0.0712 | x1 = 0.0799 | x1 = 0.0895 | x1 = 0.0995
303.15 K | 768.28 | 767.5 | 766.58 | 765.57 | 764.97 | 764.04 | 763.35 | 762.72 | 762.05 | 761.36
313.15 K | 758.66 | 757.93 | 757.05 | 756.07 | 755.48 | 754.54 | 753.86 | 753.22 | 752.62 | 751.88

CCCN(CCC)CCC [tripropylamine] + C1CCCCC1
mass density [kg/m3], [1]
Conditions | x1 = 0.0109 | x1 = 0.02 | x1 = 0.0305 | x1 = 0.0406 | x1 = 0.0511 | x1 = 0.0596 | x1 = 0.0693 | x1 = 0.0787 | x1 = 0.0878
303.15 K | 768.54 | 768.11 | 767.6 | 767.14 | 766.65 | 766.35 | 765.93 | 765.54 | 765.16
313.15 K | 758.99 | 758.57 | 758.14 | 757.71 | 757.28 | 756.93 | 756.56 | 756.18 | 755.84

CCCCN [1-butanamine] + C1CCCCC1
mass density [kg/m3], [1]
Conditions | x1 = 0.0097 | x1 = 0.0197 | x1 = 0.0282 | x1 = 0.038 | x1 = 0.0471 | x1 = 0.0581 | x1 = 0.0674 | x1 = 0.0724 | x1 = 0.0873
303.15 K | 768.39 | 767.7 | 767.1 | 766.38 | 765.76 | 764.98 | 764.35 | 764.08 | 763.14
313.15 K | 758.82 | 758.12 | 757.54 | 756.91 | 756.3 | 755.61 | 754.91 | 754.62 | 753.62

CCCCNCCCC [dibutylamine]
[2]
Conditions | mass density [kg/m3]
303.15 K | 752.28
313.15 K | 743.44

CCCCN(CCCC)CCCC [tributylamine]
[2]
Conditions | mass density [kg/m3]
303.15 K | 770.21
313.15 K | 763.11

CCCNCCC [dipropylamine]
[2]
Conditions | mass density [kg/m3]
303.15 K | 731.21
313.15 K | 726.15

CCN(CC)CC [triethylamine]
[2]
Conditions | mass density [kg/m3]
303.15 K | 718.44
313.15 K | 709.05

CCCCN [1-butanamine]
[2]
Conditions | mass density [kg/m3]
303.15 K | 728.65
313.15 K | 719.17

CCCCN(CCCC)CCCC [tributylamine] + C1CCCCC1
mass density [kg/m3], [1]
Conditions | x1 = 0.0103 | x1 = 0.0216 | x1 = 0.0318 | x1 = 0.0402 | x1 = 0.0516 | x1 = 0.0598 | x1 = 0.0709 | x1 = 0.0807 | x1 = 0.0861
303.15 K | 768.92 | 768.75 | 768.65 | 768.57 | 768.46 | 768.38 | 768.26 | 768.18 | 768.14
313.15 K | 759.38 | 759.25 | 759.17 | 759.09 | 758.99 | 758.97 | 758.92 | 758.91 | 758.99

CCCCNCCCC [dibutylamine] + C1CCCCC1
mass density [kg/m3], [1]
Conditions | x1 = 0.0109 | x1 = 0.0204 | x1 = 0.0298 | x1 = 0.0392 | x1 = 0.0493 | x1 = 0.0583 | x1 = 0.0689 | x1 = 0.0797 | x1 = 0.0881
303.15 K | 768.53 | 768.07 | 767.62 | 767.24 | 766.84 | 766.46 | 766.05 | 765.6 | 765.27
313.15 K | 759.01 | 758.59 | 758.19 | 757.79 | 757.36 | 756.99 | 756.55 | 756.11 | 755.77

CCCCNCCCC [dibutylamine] + c1ccccc1
mass density [kg/m3], [1]
Conditions | x1 = 0.0108 | x1 = 0.0201 | x1 = 0.03 | x1 = 0.039 | x1 = 0.0487 | x1 = 0.0593 | x1 = 0.0689 | x1 = 0.0797 | x1 = 0.0892
303.15 K | 865.75 | 863.58 | 861.33 | 859.32 | 857.18 | 854.88 | 852.86 | 850.62 | 848.69
313.15 K | 855.17 | 853.13 | 851 | 849.09 | 847.05 | 844.85 | 842.92 | 840.79 | 838.92

CCCNCCC [dipropylamine] + C1CCCCC1
mass density [kg/m3], [1]
Conditions | x1 = 0.0114 | x1 = 0.0213 | x1 = 0.0321 | x1 = 0.0414 | x1 = 0.0509 | x1 = 0.0622 | x1 = 0.0727 | x1 = 0.0811 | x1 = 0.0919
303.15 K | 768.31 | 767.65 | 766.94 | 766.29 | 765.71 | 764.96 | 764.29 | 763.78 | 763.13
313.15 K | 758.72 | 758.03 | 757.3 | 756.67 | 756.07 | 755.34 | 754.66 | 754.17 | 753.52

c1ccccc1 [benzene]
[2]
Conditions | mass density [kg/m3]
303.15 K | 868.3
313.15 K | 857.59

CCCN(CCC)CCC [tripropylamine] + c1ccccc1
mass density [kg/m3], [1]
Conditions | x1 = 0.0104 | x1 = 0.0206 | x1 = 0.0307 | x1 = 0.0402 | x1 = 0.0497 | x1 = 0.0596 | x1 = 0.0693 | x1 = 0.0788 | x1 = 0.0889
303.15 K | 865.5 | 862.82 | 860.21 | 857.87 | 855.54 | 853.15 | 850.88 | 848.69 | 846.42
313.15 K | 854.85 | 852.24 | 849.71 | 847.43 | 845.18 | 842.85 | 840.66 | 838.55 | 836.35

C1CCCCC1 [cyclohexane]
[2]
Conditions | mass density [kg/m3]
303.15 K | 769.1
313.15 K | 759.52

CCCN [propan-1-amine] + c1ccccc1
mass density [kg/m3], [1]
Conditions | x1 = 0.0079 | x1 = 0.0186 | x1 = 0.028 | x1 = 0.0366 | x1 = 0.047 | x1 = 0.0579 | x1 = 0.0659 | x1 = 0.0759 | x1 = 0.0844
303.15 K | 867.07 | 865.41 | 863.91 | 862.58 | 860.86 | 859.18 | 857.86 | 856.37 | 854.97
313.15 K | 856.39 | 854.75 | 853.34 | 852.02 | 850.44 | 848.78 | 847.56 | 846.03 | 844.73

CCCN(CCC)CCC [tripropylamine]
[2]
Conditions | mass density [kg/m3]
303.15 K | 749.15
313.15 K | 740.41

CCCCN [1-butanamine] + c1ccccc1
mass density [kg/m3], [1]
Conditions | x1 = 0.0094 | x1 = 0.0195 | x1 = 0.0284 | x1 = 0.038 | x1 = 0.048 | x1 = 0.0588 | x1 = 0.0669 | x1 = 0.0764 | x1 = 0.0859
303.15 K | 866.8 | 865.19 | 863.77 | 862.3 | 860.74 | 859.06 | 857.8 | 856.32 | 854.84
313.15 K | 856.12 | 854.55 | 853.17 | 851.7 | 850.16 | 848.5 | 847.27 | 845.82 | 844.4

Source: the NIST ThermoML archive (doi:10.1016/j.tca.2005.08.012)
